Source: the NIST ThermoML archive (doi:10.1021/je900468u)
Numbers after ± are expanded uncertainties.

Key:
[1] = xn = mol fraction of the nth substance listed; conditions: 101 kPa, Liquid; for speed of sound: Pulse-echo method
[2] = refractive index (Na D-line) (dimensionless); xn = mol fraction of the nth substance listed; conditions: 101 kPa, Liquid, Standard Abbe refractometry

CC1CCCCC1 [methylcyclohexane] + c1ccccc1
Conditions	mass density, [1] [kg/m3]	refractive index, [2]	speed of sound, [1] [m/s]
283.15 K, x1 = 0.0504	880.6 ± 0.4	1.50135 ± 0.00072	1359 ± 2
283.15 K, x1 = 0.099	872.4 ± 0.4	1.49548 ± 0.00072	1350 ± 2
283.15 K, x1 = 0.1998	856.9 ± 0.4	1.48438 ± 0.00073	1333 ± 2
283.15 K, x1 = 0.2978	843.4 ± 0.4	1.47501 ± 0.00069	1320 ± 2
283.15 K, x1 = 0.3991	830.7 ± 0.4	1.46578 ± 0.00069	1308 ± 2
283.15 K, x1 = 0.4993	819.5 ± 0.5	1.45783 ± 0.00067	1299 ± 2
283.15 K, x1 = 0.598	809.6 ± 0.5	1.45078 ± 0.00066	1293 ± 2
283.15 K, x1 = 0.6991	800.5 ± 0.5	1.44435 ± 0.00065	1288 ± 2
283.15 K, x1 = 0.7981	792.4 ± 0.5	1.43862 ± 0.00065	1284 ± 2
283.15 K, x1 = 0.8961	784.9 ± 0.6	1.4333 ± 0.00064	1282 ± 2
283.15 K, x1 = 0.9523	781 ± 0.6	1.43058 ± 0.00064	1282 ± 2
283.15 K, x1 = 1	777.9 ± 0.6	1.42833 ± 0.00063	1281 ± 2
298.15 K, x1 = 0.0504	865 ± 0.4	1.49162 ± 0.00072	1289 ± 2
298.15 K, x1 = 0.099	857.1 ± 0.4	1.48594 ± 0.0007	1280 ± 2
298.15 K, x1 = 0.1998	841.9 ± 0.4	1.47509 ± 0.00067	1263 ± 2
298.15 K, x1 = 0.2978	828.8 ± 0.4	1.46597 ± 0.00067	1250 ± 2
298.15 K, x1 = 0.3991	816.5 ± 0.5	1.45706 ± 0.00065	1240 ± 2
298.15 K, x1 = 0.4993	805.7 ± 0.5	1.44934 ± 0.00064	1231 ± 2
298.15 K, x1 = 0.598	796 ± 0.5	1.44247 ± 0.00063	1225 ± 2
298.15 K, x1 = 0.6991	787.2 ± 0.5	1.43623 ± 0.00063	1220 ± 2
298.15 K, x1 = 0.7981	779.3 ± 0.6	1.43061 ± 0.00063	1217 ± 2
298.15 K, x1 = 0.8961	772 ± 0.6	1.42549 ± 0.00063	1216 ± 2
298.15 K, x1 = 0.9523	768.2 ± 0.6	1.42279 ± 0.00063	1215 ± 2
298.15 K, x1 = 1	765.1 ± 0.6	1.42062 ± 0.00063	1215 ± 2

Cc1ccccc1 [toluene] + CC1CCCCC1
x2 = 0
Conditions	mass density, [1] [kg/m3]	refractive index, [2]	speed of sound, [1] [m/s]
283.15 K	876.1 ± 0.3	1.50278 ± 0.00066	1371 ± 2
298.15 K	862.2 ± 0.3	1.49399 ± 0.00066	1305 ± 2
